Non-standard residues stand in square brackets, D forms with d. No end group written: not given here. Ahx = NCCCCCC(=O)O
Experiments:
[1] = tested on: human αSyn; assay: Antibody-inducing ability in mice: ELISA antibody titer of immune serum with respect to human αSyn; type: in vivo, mouse; parameters: key to Antibody titer with respect to human αSyn, relative to control: log titer relative to control conjugate (control = 1); conditions: for Antibody titer with respect to human αSyn (N = 4 − 6, mean ± standard deviation): Example 2, serum 2 weeks after second administration; for Antibody titer compared with control conjugate (in words): Example 9, mice, human αSyn and aggregated human αSyn, control AJ-p150 or AJ-p54
Protocol: (§1) Using the various AJ peptide-human αSyn peptide conjugates produced in Example 1, an antibody-inducing ability with respect to human αSyn in mice was evaluated. The various AJ-human αSyn peptide conjugates (250 μg/mouse) or KLH-DMPVDPDN (25 μg/mouse) in physiological saline were intramuscularly administered to balb/c mice (females, 6 weeks old, CLEA Japan, Inc.) twice at a 2-week interval for immunization using aluminum hydroxide (Alum) (InvivoGen, 50 μg/mouse) as an adjuvant. As a negative control, physiological saline (100 μL/mouse) comprising the same amount of aluminum hydroxide was administered twice. Two weeks after the second administration, serum was recovered to evaluate the antibody titer with respect to human αSyn by ELISA.
ELISA was performed by the following method. 96-well plates were coated with human αSyn (Sigma) at 0.2 μg/well. After washing with PBST (Phosphate Buffered Saline comprising 0.05% Tween) once, blocking was performed with 3% skim milk (FUJIFILM Wako Pure Chemical Corporation). After washing with PBST three times, diluted serum was added to cause a reaction at room temperature for 1 hour. Furthermore, after washing with PBST three times, Goat anti-mouse IgG-HRP (abcam) was added to cause a reaction at room temperature for 1 hour. After washing with PBST three times, SureBlue TMB Microwell Peroxidase Substrate (KPL) was added to cause a reaction at room temperature for 10 minutes while light shielding. An equal volume of a TMB Stop Solution (KPL) was added to stop the reaction, and the absorbance at 450 nm was measured. ELISA with respect to aggregated human αSyn was performed by coating with the aggregated human αSyn (Stress Marq) at 15 ng/well instead of human αSyn in the above-mentioned method. […]
The antibody-inducing ability of the produced various human αSyn peptide conjugates with respect to human αSyn and aggregated human αSyn in the mice was evaluated by the method described in Example 2 using the antibody titers with respect to human αSyn and aggregated human αSyn of the mouse immune serum. […] In Table 6, the antibody titer of AJ-p242, AJ-p244, AJ-p347, or AJ-p361 is shown with the antibody titer of AJ-p150 as a control being 1 (logarithm). In addition, the antibody titers of AJ-p229, AJ-p237, and AJ-p298 are shown with the antibody titer of AJ-p54 as a control being 1 (logarithm). […]

[2] = tested on: aggregated human αSyn; assay: Antibody-inducing ability in mice: ELISA antibody titer of immune serum with respect to aggregated human αSyn; type: in vivo, mouse; conditions: for Antibody titer with respect to aggregated human αSyn (N = 4 − 6, mean ± standard deviation): Example 2, serum 2 weeks after second administration; for Antibody titer with respect to aggregated human αSyn, relative to control: mice; for Antibody-inducing ability regarding the aggregated human αSyn (in words): Example 2, balb/c mice
Protocol: as §1
ELISA was performed by the following method. 96-well plates were coated with human αSyn (Sigma) at 0.2 μg/well. After washing with PBST (Phosphate Buffered Saline comprising 0.05% Tween) once, blocking was performed with 3% skim milk (FUJIFILM Wako Pure Chemical Corporation). After washing with PBST three times, diluted serum was added to cause a reaction at room temperature for 1 hour. Furthermore, after washing with PBST three times, Goat anti-mouse IgG-HRP (abcam) was added to cause a reaction at room temperature for 1 hour. After washing with PBST three times, SureBlue TMB Microwell Peroxidase Substrate (KPL) was added to cause a reaction at room temperature for 10 minutes while light shielding. An equal volume of a TMB Stop Solution (KPL) was added to stop the reaction, and the absorbance at 450 nm was measured. ELISA with respect to aggregated human αSyn was performed by coating with the aggregated human αSyn (Stress Marq) at 15 ng/well instead of human αSyn in the above-mentioned method.
The antibody-inducing ability of the AJ-human αSyn peptide conjugates (AJ-p54, AJ-p54-KLH, and AJ-DMPVDPDN) produced in Example 1 with respect to human αSyn and aggregated human αSyn in mice was evaluated. Physiological saline or the AJ-human αSyn peptide conjugate (250 μg/mouse) was intramuscularly administered to balb/c mice (females, 6 weeks old, CLEA Japan, Inc.) twice at a 2-week interval using Alum (InvivoGen, 50 μg/mouse) as an adjuvant. Furthermore, KLH-DMPVDPDN (25 μg/mouse) was administered using Alum (InvivoGen, 50 μg/mouse) as an adjuvant. Two weeks after the second administration, serum was recovered to evaluate the antibody titer by ELISA. ELISA was performed by the method described in Example 2.
The antibody-inducing ability of the produced various human αSyn peptide conjugates with respect to human αSyn and aggregated human αSyn in the mice was evaluated by the method described in Example 2 using the antibody titers with respect to human αSyn and aggregated human αSyn of the mouse immune serum. […] In Table 6, the antibody titer of AJ-p242, AJ-p244, AJ-p347, or AJ-p361 is shown with the antibody titer of AJ-p150 as a control being 1 (logarithm). In addition, the antibody titers of AJ-p229, AJ-p237, and AJ-p298 are shown with the antibody titer of AJ-p54 as a control being 1 (logarithm).
The antibody-inducing ability of the AJ-human αSyn peptide conjugates with a modified linker with respect to human αSyn and aggregated human αSyn in the mice was evaluated using the antibody titers with respect to human αSyn and aggregated human αSyn of the mouse immune serum. […] In Table 8, the antibody titers of the AJ-human αSyn peptide conjugates with various modified linkers comprising p54 are shown with the antibody titer of AJ-p54 as a control being 1 (logarithm). In addition, the antibody titers of the AJ-human αSyn peptide conjugates with various modified linkers comprising p150 are shown with the antibody titer of AJ-p150 as a control being 1 (logarithm).

[3] = balb/c mice, i.m. twice at 2-week interval, Alum, AJ conjugates 250 μg/mouse, KLH-DMPVDPDN 25 μg/mouse
[4] = Example 9, mice, N = 4, titer of AJ-p150 or AJ-p54 as control being 1 (logarithm)
[5] = Example 10, modified linker, mice, titer of AJ-p54 or AJ-p150 as control being 1 (logarithm)
[6] = Example 9, N = 4, titer of AJ-p150 or AJ-p54 as control being 1 (logarithm)
[7] = Example 10, modified linker, titer of AJ-p54 or AJ-p150 as control being 1 (logarithm)
[8] = Example 4, balb/c mice, i.m. twice at 2-week interval, Alum, AJ conjugates 250 μg/mouse, KLH-DMPVDPDN 25 μg/mouse

| Substance | Antibody titer with respect to human αSyn (N = 4 − 6, mean ± standard deviation) [1, 3] | Antibody titer with respect to human αSyn, relative to control [1, 5] | Antibody titer with respect to aggregated human αSyn (N = 4 − 6, mean ± standard deviation) [2, 3] | Antibody titer with respect to aggregated human αSyn, relative to control [2, 7] | further results |
| --- | --- | --- | --- | --- | --- |
| ELKLIFLHRLKRLRKRLKRKXEAYEMPSEE (ELKLIFLHRLKRLRKRLKRK[Ahx]EAYEMPSEE) [AJ-p150, AJ peptide linked to p150 via ε-Acp (X)] | 2176 ± 1471 | 1 | 576 ± 322 | 1 | Antibody titer with respect to human αSyn, relative to control [1, 4]: 1; Antibody titer with respect to aggregated human αSyn, relative to control [2, 6]: 1 |
| ELKLIFLHRLKRLRKRLKRKXHAFEMPSEEG (ELKLIFLHRLKRLRKRLKRK[Ahx]HAFEMPSEEG) [AJ-p347] | – | – | – | – | Antibody titer compared with control conjugate (in words) [1]: same level of an antibody titer; Antibody titer with respect to human αSyn, relative to control [1, 4]: 0.97; Antibody titer with respect to aggregated human αSyn, relative to control [2, 6]: 0.97 |
| ELKLIFLHRLKRLRKRLKRKXKKDELGKDE (ELKLIFLHRLKRLRKRLKRK[Ahx]KKDELGKDE) [AJ-p298] | – | – | – | – | Antibody titer compared with control conjugate (in words) [1]: same level of an antibody titer; Antibody titer with respect to human αSyn, relative to control [1, 4]: 0.82; Antibody titer with respect to aggregated human αSyn, relative to control [2, 6]: 0.93 |
| ELKLIFLHRLKRLRKRLKRKXKKDQLGANE (ELKLIFLHRLKRLRKRLKRK[Ahx]KKDQLGANE) [AJ-p142] | 4693 ± 6431 | – | 576 ± 732 | – | – |
| ELKLIFLHRLKRLRKRLKRKXKKDQLGKND (ELKLIFLHRLKRLRKRLKRK[Ahx]KKDQLGKND) [AJ-p233] | 1323 ± 1505 | – | 555 ± 377 | – | – |
| ELKLIFLHRLKRLRKRLKRKXKKDQLGKNE-C-KLH (not fully specified; C-terminal Cys linked to KLH) [AJ-p54-KLH, KLH-modified AJ-human αSyn peptide conjugate, KLH linked via cysteine to the C-terminal] | – | – | – | – | Induction of the antibody to human αSyn (in words) ([1]; Example 3, mice): induced to the same extent; Antibody titer (N = 4 − 6, mean ± standard deviation) with respect to human αSyn ([1]; Example 3, mice, same manner as Example 2): 1621 ± 681; Induction of the antibody to human αSyn (in words) ([1]; Example 4, balb/c mice): induced; Antibody titer with respect to human αSyn (mean ± standard deviation) [1, 8]: 1621 ± 681; Induction of the antibody to aggregated human αSyn (in words) ([2]; Example 4, balb/c mice): induced; Antibody titer with respect to aggregated human αSyn (mean ± standard deviation) [2, 8]: 640 ± 314 |
| ELKLIFLHRLKRLRKRLKRKXKKDQLGKNEE (ELKLIFLHRLKRLRKRLKRK[Ahx]KKDQLGKNEE) [AJ-p167] | 2389 ± 1399 | – | 1664 ± 1409 | – | Antibody-inducing ability regarding the aggregated human αSyn (in words) [2]: particularly strong antibody-inducing ability |
| ELKLIFLHRLKRLRKRLKRKXKKNQLGKND (ELKLIFLHRLKRLRKRLKRK[Ahx]KKNQLGKND) [AJ-p272] | 4096 ± 2896 | – | 1536 ± 1724 | – | Antibody-inducing ability regarding the aggregated human αSyn (in words) [2]: particularly strong antibody-inducing ability |
| ELKLIFLHRLKRLRKRLKRKXKKNQLGKNE (ELKLIFLHRLKRLRKRLKRK[Ahx]KKNQLGKNE) [AJ-p237] | – | – | – | – | Antibody titer compared with control conjugate (in words) [1]: same level of an antibody titer; Antibody titer with respect to human αSyn, relative to control [1, 4]: 0.91; Antibody titer with respect to aggregated human αSyn, relative to control [2, 6]: 0.95 |
| ELKLIFLHRLKRLRKRLKRKXKKTQLGKNE (ELKLIFLHRLKRLRKRLKRK[Ahx]KKTQLGKNE) [AJ-p229] | – | – | – | – | Antibody titer compared with control conjugate (in words) [1]: same level of an antibody titer; Antibody titer with respect to human αSyn, relative to control [1, 4]: 0.92; Antibody titer with respect to aggregated human αSyn, relative to control [2, 6]: 1.02 |
| ELKLIFLHRLKRLRKRLKRKXKRDQLGKNE (ELKLIFLHRLKRLRKRLKRK[Ahx]KRDQLGKNE) [AJ-p227] | 4267 ± 3200 | – | 3072 ± 2748 | – | Antibody-inducing ability regarding the aggregated human αSyn (in words) [2]: particularly strong antibody-inducing ability |
| ELKLIFLHRLKRLRKRLKRKαKEAYEMPSEE [AJ-αK-p150] | – | 0.95 | – | 1.05 | – |
| ELKLIFLHRLKRLRKRLKRKαKKKDQLGKNE [AJ-αK-p54] | – | 0.99 | – | 0.92 | – |
| ELKLIFLHRLKRLRKRLKRKϵKEAYEMPSEE [AJ-εK-p150] | – | 0.82 | – | 0.86 | – |
| ELKLIFLHRLKRLRKRLKRKϵKKKDQLGKNE [AJ-εK-p54] | – | 0.70 | – | 0.81 | – |
| ELKLIFLHRLKRLRKRLKRKϵKKKEAYEMPSEE [AJ-εKKK-p150] | – | 0.79 | – | 0.90 | – |
| ELKLIFLHRLKRLRKRLKRKϵKKKKEAYEMPSEE [AJ-εKKKK-p150] | – | 0.97 | – | 1.00 | – |
| ELKLIFLHRLKRLRKRLKRKϵKKKKKDQLGKNE [AJ-εKKK-p54] | – | 0.74 | – | 0.88 | – |
| ELKLIFLHRLKRLRKRLKRKϵKKKKKKDQLGKNE [AJ-εKKKK-p54] | – | 0.77 | – | 0.90 | – |

Reference: patent publication US20240270801A1, “EPITOPE PEPTIDE OF HUMAN ALPHA-SYNUCLEIN AND PHARMACEUTICAL COMPOSITION INCLUDING SAID PEPTIDE” (Sumitomo Pharma Co., Ltd., priority 2021, published 2024)
